Data on two compounds can be found in patent US9688691B2, “Macrocyclic quinazole derivatives and their use as MTKI” (Janssen Pharmaceutica NV, priority 2004, dated 2017).

Holding throughout (type): biochemical
One assay deals with cSRC (h) (Homo sapiens, UniProt P12931). In words: Kinase profiling, glass-fiber filter technology: cSRC. The note with it: test concentration of 10^−6 M; read-out: cSRC inhibition score. On the procedure:
(§1) The in vitro inhibition of a panel of kinases was assessed using the glass-fiber filter technology as described by Davies, S. P. et al., Biochem J. (2000), 351; p. 95-105.
(§2) In the glass-fiber filter technology the activity of the kinase of interest is measured using an appropriate substrate that is incubated with the aforementioned kinase protein in the presence of (^33P) radiolabeled ATP. (^33P) Phosporylation of the substrate is subsequently measured as radioactivity bound on a glassfiber-filter.
(§3) All kinases are pre-diluted to a 10× working concentration prior to addition into the assay. The composition of the dilution buffer for each kinase is detailed below.
(§4) All substrates are dissolved and diluted to working stocks in de-ionised water.
(§5) In a final reaction volume of 25 μl, cSRC (h) (5-10 mU) is incubated with 8 mM MOPS pH 7.0, 0.2 mM EDTA, 250 μM KVEKIGEGTYGVVYK (Cdc2 peptide), 10 mM MgAcetate and [γ-^33P-ATP] (specific activity approx. 500 cpm/pmol, concentration as required). The reaction is initiated by the addition of the MgATP mix. After incubation for 40 minutes at room temperature, the reaction is stopped by the addition of 5 μl of a 3% phosphoric acid solution.
(§6) 10 μl of the reaction is then spotted onto a P30 filtermat and washed three times for 5 minutes in 75 mM phosphoric acid and once in methanol prior to drying and scintillation counting.

In another assay the target is Ret human (Homo sapiens, UniProt P07949). Description: Kinase profiling, glass-fiber filter technology: Ret. The note with it: test concentration of 10^−6 M; read-out: Ret inhibition score. On the procedure:
as §1, §2, §3, §4
as §5, with “Ret human” for “cSRC (h)”, “KKKSPGEYVNIEFG,” for “KVEKIGEGTYGVVYK (Cdc2 peptide),”, “solution. 10 μl of the reaction is then spotted onto a P30 filtermat and washed three times for 5 minutes in 75 mM phosphoric acid and once in methanol prior to drying and scintillation counting.” for “solution.”

Another assay deals with Lck (h) (Homo sapiens, UniProt P06239). Description: Kinase profiling, glass-fiber filter technology: Lck. The note with it: test concentration of 10^−6 M; read-out: Lck inhibition score. As to the method: as §1, §2, §3, §4
Chain of Lck (h) (P06239 whole entry): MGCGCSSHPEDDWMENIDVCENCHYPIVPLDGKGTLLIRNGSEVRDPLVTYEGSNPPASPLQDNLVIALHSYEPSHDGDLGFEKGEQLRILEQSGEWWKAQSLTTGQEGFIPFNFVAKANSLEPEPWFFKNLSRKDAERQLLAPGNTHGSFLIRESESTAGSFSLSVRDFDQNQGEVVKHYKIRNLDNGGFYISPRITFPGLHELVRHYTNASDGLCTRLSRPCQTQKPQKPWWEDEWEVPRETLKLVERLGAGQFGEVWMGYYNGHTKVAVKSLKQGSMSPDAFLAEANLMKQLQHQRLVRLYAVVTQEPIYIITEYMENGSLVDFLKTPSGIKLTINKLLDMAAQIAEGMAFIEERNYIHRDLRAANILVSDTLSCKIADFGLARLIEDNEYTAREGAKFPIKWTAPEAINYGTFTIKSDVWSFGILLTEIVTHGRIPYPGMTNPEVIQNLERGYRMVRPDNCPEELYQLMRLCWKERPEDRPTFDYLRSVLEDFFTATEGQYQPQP
(§7) In a final reaction volume of 25 μl, Lck (h) (5-10 mU) is incubated with 50 mM Tris pH 7.5, 0.1 mM EGTA, 0.1 mM Na3VO4, 250 μM KVEKIGEGTYGVVYK (Cdc2 peptide), 10 mM MgAcetate and [γ-^33P-ATP] (specific activity approx. 500 cpm/pmol, concentration as required). The reaction is initiated by the addition of the MgATP mix. After incubation for 40 minutes at room temperature, the reaction is stopped by the addition of 5 μl of a 3% phosphoric acid solution.
as §6

The target in a further assay is EGFR (h) (Homo sapiens, UniProt P00533). In words: Kinase profiling, glass-fiber filter technology: EGFR. The note with it: test concentration of 10^−6 M; read-out: EGFR inhibition score. On the procedure:
as §1, §2, §3, §4
as §5, with “EGFR” for “cSRC”, “10 mM MnCl2, 0.1 mg/ml poly(Glu, Tyr) 4:1,” for “250 μM KVEKIGEGTYGVVYK (Cdc2 peptide),”, “solution. 10 μl of the reaction is then spotted onto a Filtermat A and washed three times for 5 minutes in 75 mM phosphoric acid and once in methanol prior to drying and scintillation counting.” for “solution.”

A further assay deals with Abl (h) (Homo sapiens, UniProt P00519). In words: Kinase profiling, glass-fiber filter technology: Abl. The note with it: test concentration of 10^−6 M; read-out: Abl inhibition score. On the procedure: as §1, §2, §3, §4
as §5, with “Abl” for “cSRC”, “50” for “250”, “EAIYAAPFAKKK,” for “KVEKIGEGTYGVVYK (Cdc2 peptide),”, “solution. 10 μl of the reaction is then spotted onto a P30 filtermat and washed three times for 5 minutes in 75 mM phosphoric acid and once in methanol prior to drying and scintillation counting.” for “solution.”

The target in another assay is ErbB4 (h) (Homo sapiens, UniProt Q15303). In words: Kinase profiling, glass-fiber filter technology: ErbB4. The note with it: test concentration of 10^−6 M; read-out: ErbB4 inhibition score. As to the method:
as §1, §2, §3, §4
as §5, with “ErbB4” for “cSRC”, “10 mM MnCl2, 0.1 mg/ml poly(Glu, Tyr) 4:1,” for “250 μM KVEKIGEGTYGVVYK (Cdc2 peptide),”, “[γ-33P-ATP]” for “[γ-^33P-ATP]”, “solution. 10 μl of the reaction is then spotted onto a Filtermat A and washed three times for 5 minutes in 75 mM phosphoric acid and once in methanol prior to drying and scintillation counting.” for “solution.”

Another assay addresses Yes (h) (Homo sapiens, UniProt P07947). Description: Kinase profiling, glass-fiber filter technology: Yes. The note with it: test concentration of 10^−6 M; read-out: Yes inhibition score. On the procedure: as §1, §2, §3, §4
as §5, with “Yes” for “cSRC”, “0.1 mg/ml poly(Glu, Tyr) 4:1,” for “250 μM KVEKIGEGTYGVVYK (Cdc2 peptide),”, “solution. 10 μl of the reaction is then spotted onto a Filtermat A and washed three times for 5 minutes in 75 mM phosphoric acid and once in methanol prior to drying and scintillation counting.” for “solution.”

The target in a further assay is Fyn human (Homo sapiens, UniProt P06241). In words: Kinase profiling, glass-fiber filter technology: Fyn. The note with it: test concentration of 10^−6 M; read-out: Fyn inhibition score. On the procedure: as §1, §2, §3, §4
as §7, with “Fyn human” for “Lck (h)”, “solution. 10 μl of the reaction is then spotted onto a P30 filtermat and washed three times for 5 minutes in 75 mM phosphoric acid and once in methanol prior to drying and scintillation counting.” for “solution.”

In a further assay the target is Blk (m) (Mus musculus, UniProt P16277). Description: Kinase profiling, glass-fiber filter technology: Blk. The note with it: test concentration of 10^−6 M; read-out: Blkl inhibition score. As to the method: as §1, §2, §3, §4
Chain of Blk (m) (P16277 whole entry): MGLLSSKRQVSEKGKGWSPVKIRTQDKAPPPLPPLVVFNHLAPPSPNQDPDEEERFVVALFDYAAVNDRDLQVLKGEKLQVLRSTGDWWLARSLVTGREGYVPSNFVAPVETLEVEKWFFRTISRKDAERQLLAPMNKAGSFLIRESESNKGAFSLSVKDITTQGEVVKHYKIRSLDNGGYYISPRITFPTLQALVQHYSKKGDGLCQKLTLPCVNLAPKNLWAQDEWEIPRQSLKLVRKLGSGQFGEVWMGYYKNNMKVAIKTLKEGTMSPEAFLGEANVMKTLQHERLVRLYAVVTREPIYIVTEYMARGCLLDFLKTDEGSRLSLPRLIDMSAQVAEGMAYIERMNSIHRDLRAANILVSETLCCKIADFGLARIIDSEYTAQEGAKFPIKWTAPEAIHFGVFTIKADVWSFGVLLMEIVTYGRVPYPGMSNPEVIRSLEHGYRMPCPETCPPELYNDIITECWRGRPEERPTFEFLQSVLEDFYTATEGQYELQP
(§8) In a final reaction volume of 25 μl, Blk (m) (5-10 mU) is incubated with 50 mM Tris pH 7.5, 0.1 mM EGTA, 0.1 mM Na3VO4, 0.1% β-mercaptoethanol, 0.1 mg/ml poly(Glu, Tyr) 4:1, 10 mM MgAcetate and [γ-33P-ATP] (specific activity approx. 500 cpm/pmol, concentration as required). The reaction is initiated by the addition of the MgATP mix. After incubation for 40 minutes at room temperature, the reaction is stopped by the addition of 5 μl of a 3% phosphoric acid solution. 10 μl of the reaction is then spotted onto a Filtermat A and washed three times for 5 minutes in 75 mM phosphoric acid and once in methanol prior to drying and scintillation counting.

For the next assay, the target named is Lyn (h) (Homo sapiens, UniProt P07948). Description: Kinase profiling, glass-fiber filter technology: Lyn. The note with it: test concentration of 10^−6 M; read-out: Lyn inhibition score. On the procedure:
as §1, §2, §3, §4
as §8, with “Lyn (h)” for “Blk (m)”, “[γ-^33P-ATP]” for “[γ-33P-ATP]”

Chain of EGFR (h) (P00533 25-1210): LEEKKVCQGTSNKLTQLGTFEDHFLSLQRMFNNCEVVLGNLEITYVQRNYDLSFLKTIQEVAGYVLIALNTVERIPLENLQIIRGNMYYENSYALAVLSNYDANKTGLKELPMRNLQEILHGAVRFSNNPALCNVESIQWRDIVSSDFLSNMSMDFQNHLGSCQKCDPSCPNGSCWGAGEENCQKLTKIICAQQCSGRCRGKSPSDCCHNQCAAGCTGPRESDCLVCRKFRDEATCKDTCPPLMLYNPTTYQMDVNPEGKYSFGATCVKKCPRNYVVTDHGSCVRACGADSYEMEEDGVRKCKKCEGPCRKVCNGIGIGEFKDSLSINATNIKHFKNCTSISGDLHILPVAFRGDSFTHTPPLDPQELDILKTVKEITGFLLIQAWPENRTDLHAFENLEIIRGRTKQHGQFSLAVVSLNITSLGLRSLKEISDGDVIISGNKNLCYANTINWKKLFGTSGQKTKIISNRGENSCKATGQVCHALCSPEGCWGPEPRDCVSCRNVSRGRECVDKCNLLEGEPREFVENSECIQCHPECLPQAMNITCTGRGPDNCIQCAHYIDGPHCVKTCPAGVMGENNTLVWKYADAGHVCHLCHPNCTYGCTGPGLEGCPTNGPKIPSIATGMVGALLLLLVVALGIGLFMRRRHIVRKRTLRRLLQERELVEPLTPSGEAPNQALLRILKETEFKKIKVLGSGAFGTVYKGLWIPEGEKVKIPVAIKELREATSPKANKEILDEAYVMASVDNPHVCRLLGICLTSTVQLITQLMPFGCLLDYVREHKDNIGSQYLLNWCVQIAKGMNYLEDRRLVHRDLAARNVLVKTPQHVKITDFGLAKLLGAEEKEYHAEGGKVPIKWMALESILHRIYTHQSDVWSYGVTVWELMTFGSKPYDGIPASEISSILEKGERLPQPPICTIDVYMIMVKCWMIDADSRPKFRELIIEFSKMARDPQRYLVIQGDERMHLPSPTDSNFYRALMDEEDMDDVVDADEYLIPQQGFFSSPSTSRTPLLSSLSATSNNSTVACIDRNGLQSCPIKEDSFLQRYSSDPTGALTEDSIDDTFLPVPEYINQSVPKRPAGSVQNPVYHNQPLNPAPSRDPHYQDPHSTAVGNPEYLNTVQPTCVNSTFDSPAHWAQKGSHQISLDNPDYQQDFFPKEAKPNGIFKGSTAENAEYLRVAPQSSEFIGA
Chain of cSRC (h) (P12931 whole entry): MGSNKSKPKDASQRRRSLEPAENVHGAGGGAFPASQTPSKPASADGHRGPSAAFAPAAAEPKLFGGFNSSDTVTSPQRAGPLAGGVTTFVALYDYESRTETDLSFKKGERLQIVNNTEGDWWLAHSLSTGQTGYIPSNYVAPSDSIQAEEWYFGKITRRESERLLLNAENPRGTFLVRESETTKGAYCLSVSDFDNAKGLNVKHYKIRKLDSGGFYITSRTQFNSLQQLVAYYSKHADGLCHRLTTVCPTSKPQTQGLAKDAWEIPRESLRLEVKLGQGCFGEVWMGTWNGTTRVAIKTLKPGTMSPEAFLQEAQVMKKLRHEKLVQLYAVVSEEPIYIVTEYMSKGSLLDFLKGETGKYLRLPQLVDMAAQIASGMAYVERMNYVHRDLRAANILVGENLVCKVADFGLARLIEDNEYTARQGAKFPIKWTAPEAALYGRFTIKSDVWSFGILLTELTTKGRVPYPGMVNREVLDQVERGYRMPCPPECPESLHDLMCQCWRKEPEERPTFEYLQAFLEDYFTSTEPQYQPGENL
Chain of Yes (h) (P07947 whole entry): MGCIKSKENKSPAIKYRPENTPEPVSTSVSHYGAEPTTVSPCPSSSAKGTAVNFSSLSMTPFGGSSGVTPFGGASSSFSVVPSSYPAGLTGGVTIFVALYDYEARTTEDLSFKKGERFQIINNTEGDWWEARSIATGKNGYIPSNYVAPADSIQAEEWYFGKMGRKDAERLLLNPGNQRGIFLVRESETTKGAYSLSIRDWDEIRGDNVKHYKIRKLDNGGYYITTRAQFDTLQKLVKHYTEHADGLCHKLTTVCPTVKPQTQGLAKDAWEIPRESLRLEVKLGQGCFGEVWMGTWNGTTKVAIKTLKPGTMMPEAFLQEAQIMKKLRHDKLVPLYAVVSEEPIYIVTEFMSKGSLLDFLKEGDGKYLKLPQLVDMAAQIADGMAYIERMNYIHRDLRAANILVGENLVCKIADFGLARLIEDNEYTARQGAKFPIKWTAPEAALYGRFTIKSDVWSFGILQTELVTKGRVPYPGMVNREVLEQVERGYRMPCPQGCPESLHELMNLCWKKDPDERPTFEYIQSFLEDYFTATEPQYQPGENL
Chain of ErbB4 (h) (Q15303 26-1308): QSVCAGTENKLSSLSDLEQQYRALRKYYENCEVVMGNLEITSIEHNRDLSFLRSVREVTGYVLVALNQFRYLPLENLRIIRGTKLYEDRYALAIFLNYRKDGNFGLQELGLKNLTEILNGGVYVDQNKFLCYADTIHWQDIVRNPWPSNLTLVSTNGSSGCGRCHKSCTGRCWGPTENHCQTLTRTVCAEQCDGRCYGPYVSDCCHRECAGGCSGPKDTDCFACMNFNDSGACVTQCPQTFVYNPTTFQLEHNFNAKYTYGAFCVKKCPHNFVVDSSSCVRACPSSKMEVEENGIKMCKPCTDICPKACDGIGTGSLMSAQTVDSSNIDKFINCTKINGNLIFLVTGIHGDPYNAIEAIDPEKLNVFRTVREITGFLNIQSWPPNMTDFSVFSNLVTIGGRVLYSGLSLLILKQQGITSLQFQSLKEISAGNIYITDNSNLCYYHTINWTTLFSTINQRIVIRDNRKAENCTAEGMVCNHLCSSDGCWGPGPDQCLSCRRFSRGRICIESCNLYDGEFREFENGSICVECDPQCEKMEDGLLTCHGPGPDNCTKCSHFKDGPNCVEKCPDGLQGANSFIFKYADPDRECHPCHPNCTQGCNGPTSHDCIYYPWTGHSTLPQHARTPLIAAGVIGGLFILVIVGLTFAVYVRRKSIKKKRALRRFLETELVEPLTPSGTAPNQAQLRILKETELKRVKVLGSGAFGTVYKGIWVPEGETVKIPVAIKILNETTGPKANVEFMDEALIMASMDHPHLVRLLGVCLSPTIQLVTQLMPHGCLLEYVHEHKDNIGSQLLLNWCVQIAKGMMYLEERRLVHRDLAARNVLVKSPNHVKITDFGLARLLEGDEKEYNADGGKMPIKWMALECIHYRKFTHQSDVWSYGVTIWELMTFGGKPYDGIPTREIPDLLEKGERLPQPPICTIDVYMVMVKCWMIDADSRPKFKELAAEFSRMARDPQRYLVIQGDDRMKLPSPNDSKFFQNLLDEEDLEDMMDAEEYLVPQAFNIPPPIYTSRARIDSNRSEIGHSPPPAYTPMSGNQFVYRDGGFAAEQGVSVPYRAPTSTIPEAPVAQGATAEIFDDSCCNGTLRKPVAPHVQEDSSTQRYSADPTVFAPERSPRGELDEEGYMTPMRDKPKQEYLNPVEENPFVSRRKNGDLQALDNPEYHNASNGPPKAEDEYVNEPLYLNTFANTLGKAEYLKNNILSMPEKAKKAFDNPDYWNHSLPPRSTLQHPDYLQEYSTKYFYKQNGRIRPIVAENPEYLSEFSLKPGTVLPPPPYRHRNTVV
Chain of Lyn (h) (P07948 whole entry): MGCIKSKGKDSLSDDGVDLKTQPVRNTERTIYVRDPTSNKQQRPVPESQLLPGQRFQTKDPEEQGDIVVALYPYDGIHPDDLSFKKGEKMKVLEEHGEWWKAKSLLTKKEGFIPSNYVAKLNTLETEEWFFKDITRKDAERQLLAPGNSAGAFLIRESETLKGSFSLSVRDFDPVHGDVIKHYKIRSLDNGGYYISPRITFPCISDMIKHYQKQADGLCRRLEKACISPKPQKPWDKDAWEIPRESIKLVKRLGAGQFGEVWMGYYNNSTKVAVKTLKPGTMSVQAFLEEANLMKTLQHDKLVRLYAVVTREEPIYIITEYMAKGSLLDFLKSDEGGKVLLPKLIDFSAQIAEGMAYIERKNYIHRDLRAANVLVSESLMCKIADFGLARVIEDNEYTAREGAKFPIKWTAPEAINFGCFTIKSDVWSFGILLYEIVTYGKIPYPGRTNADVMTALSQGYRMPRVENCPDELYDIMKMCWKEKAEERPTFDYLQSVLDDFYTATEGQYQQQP

The term inhibition denotes the percentage by which the read-out fell short of the control. With `COc1cc2ncnc3c2cc1OCCCNC(=O)[C@H](CC1CCCCC1)NC(=O)CCc1ccc(Cl)cc1N3` [Compound 8], the inhibition at 1 µM at cSRC (h) is more than 80%; on Ret human, more than 80%; at Lck (h) it was more than 80%; on EGFR (h), more than 80%; on Abl (h) it was 10 to 30%; at ErbB4 (h) it was 60 to 80%. In addition, the results for the inhibition at 1 µM at Yes (h) and at Fyn human were more than 80% and 60 to 80%, respectively.
Consider `COc1cc2ncnc3c2cc1OCCN(CCN1CCOCC1)C(=O)CNC(=O)Cc1ccc(Cl)cc1N3` [Compound 1], for which the inhibition at 1 µM at cSRC (h) is 60 to 80%; at Lck (h), 10 to 30%; at Blk (m), 30 to 60%; at EGFR (h), more than 80%; on Lyn (h), 30 to 60%; on Yes (h), 30 to 60%.
